Consider two compounds from patent US6174713A, “Candida cytoplasmic tryptophanyl-tRNA synthetase proteins, nucleic acids and strains comprising same” (Cubist Pharmaceuticals, Inc., priority 1997, dated 2001).

Series [1] deals with C. albicans cytoplasmic tryptophanyl-tRNA synthetase (recombinant, thrombin-cleaved GST fusion from pC3 822) (Candida albicans, UniProt Q5A3P4). Description: Aminoacylation (charging) assay, Km determination with purified recombinant TrpRS. The series is classed as biochemical. To be noted: read-out: Km for tryptophan; recombinant enzyme; crude yeast tRNA; 1 to 40 μM [3H]tryptophan; 25° C. On the procedure: (§1) The purified recombinant protein obtained after thrombin cleavage of the GST-fusion protein produced by JM109/pC^3 822 was used for further kinetic studies. Charging assays were based on the procedure of Shepard et al. (Proc. Natl. Acad. Sci. USA 89:9964-68 (1992)). Unless otherwise stated, a typical 50 μl reaction, carried out at 25° C., contained 1 mM ATP, 1 μM of [^3 H]Tryptophan (22.2 Ci/mmol), 90 μM crude tRNA from brewer's yeast (Boehringer Mannheim), 10 mM KF, 30 mM HEPES, 30 mM KCl pH 7.5, 5 mM MgCl2, and 10 mM DTT. Purified enzyme was diluted in 100 mM HEPES, pH 7.5, 20 mM DTT and 0.1 mg/ml BSA.
Sequence of C. albicans cytoplasmic tryptophanyl-tRNA synthetase (recombinant, thrombin-cleaved GST fusion from pC3 822) (Q5A3P4 whole entry S271A, the tested form may be a part): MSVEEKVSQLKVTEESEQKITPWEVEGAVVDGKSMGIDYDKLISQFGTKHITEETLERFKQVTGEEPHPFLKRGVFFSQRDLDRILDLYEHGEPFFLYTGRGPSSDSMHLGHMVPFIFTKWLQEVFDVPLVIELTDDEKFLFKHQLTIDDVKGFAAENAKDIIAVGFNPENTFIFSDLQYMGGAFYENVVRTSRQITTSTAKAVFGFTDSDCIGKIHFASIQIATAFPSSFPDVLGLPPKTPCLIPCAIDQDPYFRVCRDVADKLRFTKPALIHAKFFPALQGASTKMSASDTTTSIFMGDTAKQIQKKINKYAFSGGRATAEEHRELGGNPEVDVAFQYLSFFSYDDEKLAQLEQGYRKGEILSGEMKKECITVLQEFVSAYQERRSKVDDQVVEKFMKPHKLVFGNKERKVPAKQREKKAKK
(§2) Reactions were started by the addition of enzyme to the reaction mixture preincubated at 25° C., with […] protein in the assay. At various time intervals, 10 μl of the reaction mix was quenched in a 96-well filter plate (Millipore, cat# MAFBNOB50) prefilled with 100 μl of cold 5% TCA. The liquid in the filter plate was drained by applying vacuum suction on the manifold. The plate was subsequently washed 2 times with 200 μl 5% TCA, 2 times with 100 μl double distilled H2 O with continuous vacuum suction, and once with 100 μl 95% EtOH. The plate was heat-dried under vacuum, 100 μl Microscint was added to each well, and the aminoacylated tRNA was quantitated by scintillation counting in a Topcount (Packard) scintillation counter. […]

Series [2] has as its system Nc1ncnc2c1ncn2[C@@H]1O[C@H](COP(=O)(O)OP(=O)(O)OP(=O)(O)O)[C@@H](O)[C@H]1O. Described as above. The series is classed as biochemical, Candida albicans. To be noted: other: recombinant enzyme, ATP concentration range 0.19 to 6 mM, 25° C., pH 7.5. On the procedure:
as §1, §2

For `N[C@@H](Cc1c[nH]c2ccccc12)C(=O)O` [tryptophan], the Michaelis-Menten constant (Km) in series [1] lay within 3 to 4 µM.

“C. albicans cytoplasmic tryptophanyl-tRNA synthetase (recombinant, thrombin-cleaved GST fusion from pC3 822) (Candida albicans SC5314)”: the Michaelis-Menten constant (Km) in series [2] was found to be 1100 µM.

By Km is commonly meant the concentration of substrate that gives half-maximal velocity.
